From BindingDB's records for patent US20250313563 (The Broad Institute, 2025)
Where “and” joins values, the source holds several entries; their conditions need not be identical. Identical values can stand only once.

biological target: Glycogen synthase kinase-3 beta (Homo sapiens, UniProt P49841); assay: TR-FRET Assay
Description: The assay was performed in a white, 384 well, low volume, flat bottom plate (Grenier). […] The kinase activity was quenched with 2 μL of 250 mM EDTA. A 10 μL volume of 40 nM Strepavidin-d2, 2 nM Tb2+-pSer641 antibody in TR-FRET Detection Buffer (Invitrogen) was then added.

Glycogen synthase kinase-3 beta, sequence (P49841 whole entry): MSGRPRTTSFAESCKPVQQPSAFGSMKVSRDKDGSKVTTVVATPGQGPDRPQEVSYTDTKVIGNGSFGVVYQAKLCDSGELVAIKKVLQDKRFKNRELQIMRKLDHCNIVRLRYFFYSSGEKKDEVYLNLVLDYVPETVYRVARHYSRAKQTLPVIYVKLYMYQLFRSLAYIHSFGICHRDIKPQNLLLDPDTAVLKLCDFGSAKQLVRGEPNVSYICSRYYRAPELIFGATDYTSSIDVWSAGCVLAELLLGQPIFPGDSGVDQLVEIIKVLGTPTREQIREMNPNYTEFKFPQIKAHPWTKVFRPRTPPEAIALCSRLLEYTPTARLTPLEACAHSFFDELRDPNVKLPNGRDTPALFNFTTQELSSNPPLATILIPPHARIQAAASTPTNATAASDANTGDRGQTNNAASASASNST

| SMILES | IC50 |
| --- | --- |
| CC[C@@]1(c2cccc(C(F)(F)F)c2)C2=C(N=NC2)NC2=C1C(=O)N(C)[C@@H]2C [US20250313563, Compound 913475] | > 5000 nM |
| CCC1(c2cccc(C(F)(F)F)c2)C2=C(N=NC2)NC2=C1C(=O)N(C)C2C (stereo not given) [US20250313563, Compound 911957] | 100 to 1000 nM |
| CC[C@]1(c2cccc(C(F)(F)F)c2)C2=CN=NC2NC2=C1C(=O)N(c1cccc(C)c1)CC2 (stereo not given in full) [US20250313563, Compound 949040] | 100 to 1000 nM |
| CC[C@@]1(c2cccc(-c3ccnn3C)c2)C2=CN=NC2NC2=C1C(=O)N[C@](C)(COC)C2 (stereo not given in full) [US20250313563, Compound 947905] | 100 to 1000 nM |
| CC[C@]1(c2cccc(-c3c(F)cncc3OC)c2)C2=CN=NC2NC2=C1C(=O)CC(C)(C)[C@@H]2F (stereo not given in full) [US20250313563, Compound 948546] | 100 to 1000 nM |
| CC1(C)CC(=O)C2=C(C1)NC1=C(CN=N1)[C@@]21COC2(CN(C(=O)C3CCC4(CC3)COC4)C2)C1 [US20250313563, Compound 944075] | 100 to 1000 nM |
| CC[C@@]1(c2cccc(-c3ccnc(C)c3)c2)C2=CN=NC2NC2=C1C(=O)C[C@]1(CCOC1)C2 (stereo not given in full) [US20250313563, Compound 947407] | 1000 to 5000 nM |
| CC[C@@]1(c2cccc(N3CCCC3)c2)C2=C(CC(C)(C)CC2=O)NC2N=NC(C)=C21 (stereo not given in full) [US20250313563, Compound 883874] | 100 to 1000 nM |
| CC[C@@]1(c2cccc(C(F)F)c2)C2=C(CC(C)(C)NC2=O)NC2N=NC(C(F)(F)F)=C21 (stereo not given in full) [US20250313563, Compound 951948] | 100 to 1000 nM |
| CC[C@@]1(c2cccc(C)c2)C2=C(CC(C)(C)CC2=O)NC2N=NC(C(F)(F)F)=C21 (stereo not given in full) [US20250313563, Compound 883873] | 100 to 1000 nM |
| CC[C@]1(c2cccc(-c3ccncc3F)c2)C2=CN=NC2NC2=C1C(=O)CC(C)(C)C2 (stereo not given in full) [US20250313563, Compound 943518] | 100 to 1000 nM |
| CC[C@@]1(c2cccc(C3=CN=NC3)c2)C2=C(CC(C)(C)CC2=O)NC2N=NC(C)=C21 (stereo not given in full) [US20250313563, Compound 913025] | 100 to 1000 nM |
| CC[C@]1(c2cccc(-c3cc(C)nn3C)c2)C2=CN=NC2NC2=C1C(=O)NC(C)(C)C2 (stereo not given in full) [US20250313563, Compound 943966] | 100 to 1000 nM |
| CC[C@@]1(c2cccc(-c3c(F)cncc3OC)c2)C2=CN=NC2NC2=C1C(=O)CC(C)(C)[C@@H]2F (stereo not given in full) [US20250313563, Compound 948548] | 100 to 1000 nM |
| CC[C@@]1(c2cccc(C(F)(F)F)c2)C2=C(N=NC2)NC2=C1C(=O)N(C)[C@H]2C [US20250313563, Compound 913495] | > 5000 nM |
| CC[C@]1(c2cccc(-c3cnn(C)c3)c2)C2=CN=NC2NC2=C1C(=O)C[C@H](C)C2 (stereo not given in full) [US20250313563, Compound 823720] | 100 to 1000 nM |
| CC[C@@]1(c2cccc(-c3ccnn3C)c2)C2=C(CC(C)(C)CC2=O)NC2N=NC(C)=C21 (stereo not given in full) [US20250313563, Compound 913023] | < 100 nM and 100 to 1000 nM |
| CC(C)(C)CC1N=NC2=C1[C@@]1(CCc3cccc(F)c31)C1=C(CC(C)(C)CC1=O)N2 (stereo not given in full) [US20250313563, Compound 801351] | 100 to 1000 nM |
| CC[C@]1(c2cccc(C(F)(F)F)c2)C2=C(N=NC2)NC2=C1C(=O)N(C)[C@@H]2C [US20250313563, Compound 913454] | 100 to 1000 nM |
| CC[C@@]1(c2cccc(-c3c(F)cncc3OC)c2)C2=C(N=NC2)NC2=C1C(=O)N(Cc1ccccc1)C2 [US20250313563, Compound 948550] | 100 to 1000 nM |
| CC[C@]1(c2cccc(-c3ccncc3C)c2)C2=CN=NC2NC2=C1C(=O)NC(C)(C)C2 (stereo not given in full) [US20250313563, Compound 947576] | 1000 to 5000 nM |
| CC[C@@]1(c2cccc(-c3cnn(CC#N)c3)c2)C2=CN=NC2NC2=C1C(=O)NC(C)(C)C2 (stereo not given in full) [US20250313563, Compound 952210] | 100 to 1000 nM |
| CC[C@@]1(c2cccc(Oc3ncccn3)c2)C2=CN=NC2NC2=C1C(=O)CC(C)(C)C2 (stereo not given in full) [US20250313563, Compound 947808] | 100 to 1000 nM |
| CC[C@@]1(c2cccc(Oc3ncccn3)c2)C2=C(CC(C)(C)CC2=O)NC2N=NC(C(F)(F)F)=C21 (stereo not given in full) [US20250313563, Compound 951604] | 100 to 1000 nM |
| CC[C@]1(c2cccc(-c3ccnc(C)c3C)c2)C2=CN=NC2NC2=C1C(=O)CC(C)(C)C2 (stereo not given in full) [US20250313563, Compound 943516] | 1000 to 5000 nM |
| CC[C@]1(c2cccc(C(F)(F)F)c2)C2=CN=NC2NC2=C1C(=O)N(c1ccccc1)CC2 (stereo not given in full) [US20250313563, Compound 929474] | 100 to 1000 nM |
| CCCS(=O)(=O)c1cccc([C@@]2(CC)C3=CN=NC3NC3=C2C(=O)CC(C)(C)C3)c1 (stereo not given in full) [US20250313563, Compound 929447] | < 100 nM and 100 to 1000 nM |

Further lines, results first:

| IC50 | SMILES |
| --- | --- |
| 100 to 1000 nM | Cn1ccc(S(=O)(=O)N2CC[C@@]3(C2)C2=C(N=NC2)NC2=C3C(=O)CC(C)(C)C2)n1 [US20250313563, Compound 945712] |
| 100 to 1000 nM | CC[C@]1(c2cccc(S(=O)(=O)C(C)C)c2)C2=C(CC(C)(C)NC2=O)NC2=C1C(C)N=N2 (stereo not given in full) [US20250313563, Compound 947870] |
| 100 to 1000 nM | CC[C@]1(c2cccc(C(F)(F)F)c2)C2=CN=NC2NC2=C1C(=O)N(c1cnn(C)c1)CC2 (stereo not given in full) [US20250313563, Compound 949270] |
| < 100 nM and 100 to 1000 nM | Cc1ccc(C(=O)N2CC3(C2)C[C@]2(CO3)C3=C(N=NC3)NC3=C2C(=O)CC(C)(C)C3)cc1C [US20250313563, Compound 948038] |
| < 100 nM and 100 to 1000 nM | CC[C@]1(c2cccc(-c3cnn(C)c3C)c2)C2=C(CC(C)(C)CC2=O)NC2N=NC(C)=C21 (stereo not given in full) [US20250313563, Compound 913045] |
| 1000 to 5000 nM | CC(C)(C)CC1=C2C(N=N1)NC1=C(C(=O)CC(C)(C)C1)[C@]21CCc2c(F)cccc21 (stereo not given in full) [US20250313563, Compound 791256] |
| < 100 nM and 100 to 1000 nM | CC[C@@]1(c2cccc(N(C)c3ncccn3)c2)C2=C(CC(C)(C)NC2=O)NC2N=NC(C(F)(F)F)=C21 (stereo not given in full) [US20250313563, Compound 949181] |
| 100 to 1000 nM | CC[C@@]1(c2cccc(-c3ccnc4c3CCCC4)c2)C2=CN=NC2NC2=C1C(=O)CC(C)(C)C2 (stereo not given in full) [US20250313563, Compound 944033] |
| 100 to 1000 nM | CC[C@@]1(c2cccc(-c3ccncc3Cl)c2)C2=CN=NC2NC2=C1C(=O)NC(C)(C)C2 (stereo not given in full) [US20250313563, Compound 948142] |
| 100 to 1000 nM | CC[C@@]1(c2cccc(-c3ccnc(C)c3)c2)C2=CN=NC2NC2=C1C(=O)N[C@]1(CCCOC1)C2 (stereo not given in full) [US20250313563, Compound 948152] |
| 100 to 1000 nM | CC[C@]1(c2cccc(S(=O)(=O)CC3CC3)c2)C2=CN=NC2NC2=C1C(=O)CC(C)(C)C2 (stereo not given in full) [US20250313563, Compound 917150] |
| 100 to 1000 nM | CC1(C)CC(=O)C2=C(C1)NC1=C(CN=N1)[C@@]21COC2(CN(C(=O)C3(F)CCC3)C2)C1 [US20250313563, Compound 947736] |
| 100 to 1000 nM | CC[C@]1(c2cccc(C(F)(F)F)c2)C2=C(N=NC2)NC2=C1C(=O)N(C)[C@H]2C [US20250313563, Compound 913473] |
| 100 to 1000 nM | CC[C@]1(c2cccc(Nc3ncccn3)c2)C2=CN=NC2NC2=C1C(=O)CC(C)(C)C2 (stereo not given in full) [US20250313563, Compound 945943] |
| 100 to 1000 nM | COc1cccc(S(=O)(=O)N2CCC3(CC2)C2=C(N=NC2)NC2=C3C(=O)CC(C)(C)C2)c1 [US20250313563, Compound 943962] |
| 100 to 1000 nM | CC[C@]1(c2cccc(-c3cnn4c3CCCC4)c2)C2=C(CC(C)(C)CC2=O)NC2N=NC(C)=C21 (stereo not given in full) [US20250313563, Compound 913036] |
| 100 to 1000 nM | CC[C@]1(c2cccc(-c3ccnc(O)c3)c2)C2=CN=NC2NC2=C1C(=O)CC(C)(C)C2 (stereo not given in full) [US20250313563, Compound 943992] |
| 100 to 1000 nM | CCCn1nccc1-c1cccc([C@]2(CC)C3=CN=NC3NC3=C2C(=O)CC(C)(C)C3)c1 (stereo not given in full) [US20250313563, Compound 946093] |
| 100 to 1000 nM | CC[C@@]1(c2cccc(C(F)(F)F)c2)C2=CN=NC2NC2=C1C(=O)C[C@]1(CCNC1=O)C2 (stereo not given in full) [US20250313563, Compound 950324] |
| 100 to 1000 nM | CC[C@]1(c2cccc(N(C)c3ccnc(OC)c3)c2)C2=CN=NC2NC2=C1C(=O)CC(C)(C)C2 (stereo not given in full) [US20250313563, Compound 932642] |
| 100 to 1000 nM | CC[C@]1(c2cccc(C(F)(F)F)c2)C2=CN=NC2NC2=C1C(=O)N(c1cnc(OC)nc1)[C@H](C)C2 (stereo not given in full) [US20250313563, Compound 949351] |
| 100 to 1000 nM | CC[C@]1(c2cccc(-c3cn(C)nc3C(F)(F)F)c2)C2=CN=NC2NC2=C1C(=O)NC(C)(C)C2 (stereo not given in full) [US20250313563, Compound 949266] |
| 100 to 1000 nM | CCC1(c2cccc(-c3cc(C)nnc3C)c2)C2=C(CC(C)(C)NC2=O)NC2N=NC(C)=C21 (stereo not given) [US20250313563, Compound 948766] |
| 100 to 1000 nM | CC[C@]1(c2cccc(C(F)(F)F)c2)C2=CN=NC2NC2=C1C(=O)N(c1ccccc1C)CC2 (stereo not given in full) [US20250313563, Compound 949128] |
| 100 to 1000 nM | CCN(c1cccc([C@@]2(CC)C3=CN=NC3NC3=C2C(=O)CC(C)(C)C3)c1)c1ncccn1 (stereo not given in full) [US20250313563, Compound 947333] |
| 100 to 1000 nM | CC[C@]1(c2cccc(-c3c(F)cncc3OC)c2)C2=CN=NC2NC2=C1C(=O)CC(C)(C)[C@H]2F (stereo not given in full) [US20250313563, Compound 948545] |
| 100 to 1000 nM | CC[C@@]1(c2cccc(-c3cnn(C)c3C#N)c2)C2=CN=NC2NC2=C1C(=O)NC(C)(C)C2 (stereo not given in full) [US20250313563, Compound 948827] |
| 100 to 1000 nM | CC[C@@]1(c2cccc(C(F)(F)F)c2)C2=CN=NC2NC2=C1C(=O)NC[C@@H]2C (stereo not given in full) [US20250313563, Compound 945382] |
